Assay results from US6667328B2, “Therapeutic agents for diabetes” (Fujimoto Brothers Co., Ltd., priority 2000, dated 2003).

Experiments:
[1] = tested on: 3T3-L1 preadipocyte cells; assay: Differentiation-inducing actions on adipose cells (oil red-O staining, absorbance at 490 nm); assay type: cell-based; conditions: 3T3-L1, oil red-O extract absorbance at 490 nm, ratio to control group (1.0)
Protocol: The cloned cell line 3T3-L1 of the preadipocyte cells at the 9-20th generation were used. The cell suspension at a concentration of 2×10^4 cells/ml was added 500 μl/well in a 24 well microplate. Then, the microplates were cultured at 37° C. in the atmosphere of 5% CO2 for 4 days with D-MEM containing 5% inactivated fetal calf serum (hereinafter abbreviated as “FCS D-MEM”). Next, the following procedures were conducted.
(1) To test compound of this invention, 500 μl/well of the following solutions was added to each well:
1) test compound-containing medium (T-MEM) in which the test compound in a stock solution (30 mM in DMSO) was diluted with FCS D-MEM containing 0.1 μM dexamethazone and 100 ng/ml insulin (hereinafter abbreviated as DEX-Ins-FCS D-MEM);
2) FCS-D-MEM; 3) DEX-Ins-FCS D-MEM; 4) 0.1% DMSO-containing DEX-Ins-FCS D-MEM for me control wells.
(2) After above additions were done, the culture plates were incubated at 37° C. in 5% CO2 for 3 days. Then, the same operations as in the procedure (1) were repeated for exchange of the culture medium. The culture plates were incubated at 37° C. in 5% CO2 for further 3 days.
(3) After incubation, the culture medium was removed from the culture plates. Then, the FCS D-MEM was added to the FCS D-MEM-wells, and next the medium prepared for containing 100 ng/ml of insulin with the FCS D-MEM (hereinafter abbreviated as “Ins-FCS D-MEM”) was added at 500 μl/well to the T-MEM wells and DEX-Ins-FCS D-MEM wells. All culture plates were incubated for 4 days.
(4) After incubation, the culture medium was removed. For cell fixation, 500 μl/well of 10% formalin in neutral buffer was added, and left at the room temperature for approximately 20 minutes or longer. Then the formalin solution was removed, and 60% 2-propanol solution was added at 500 μl/well, then quickly removed, and the oil red-O staining solution was added at 250 μl/well. The culture plates were sealed with plate seals, and left at room temperature for 30 minutes or longer. After incubation, the staining solution was removed, and the 60% 2-propanol solution was added at 500 μl/well, and quickly removed. The cells were rinsed with water a few times, and then water drops were flipped away. A cell-lysis buffer was added at 500 μl/well, and the culture plates were sealed with plate seals, and left at 37° C. for 1 hour to extract the pigments. Next, 300 μl/well of the extract solution was transferred at a 96 well micro-plates, and then the absorbance of each extract was measured at wavelength of 490 nm.
The absorbance ratios of the respective test compounds-groups to the control group, the mean absorbance of which was designated as 1.0, are shown in Table 8. Based on the judgement that the absorbance higher than that of the control group indicates a greater differentiation-inducing activity of the test compound, the compounds of the present invention were determined to have the activity to induce differentiation of preadipocytes to adipocytes, resulting in elevating insulin sensitivity of organs. Thereby, this activity would confer the efficacy in the therapy of diabetes.

[2] = tested on: fructose-induced hyperlipidemic rats; assay: Hypotriglyceridemic activity in fructose-induced hyperlipidemic rats; assay type: in vivo, Sprague Dawley rats; conditions: fructose-loaded rats, 30 mg/kg p.o. once daily for 7 days; for inhibition in vivo at 30 mg/kg: Rattus norvegicus, po, 168 h, read-out: Reduction in Serum Triglyceride (%)
Protocol: The compounds were tested for a hypotriglyceridemic activity in fructose-induced hyperlipidemic rats in accordance with the method described in Nippon Yakurigaku Zasshi, 92 (3), 175-180 (1988). Sprague Dawley rats were grouped by the ranking method of body weight. Then, instead of drinking water, rats were given 75% fructose aqueous ad libitum for one week, thereby, resulting in the state of hypertriglyceridemia. The compounds of the present invention, suspended in 3% Arabic gum aqueous solution, and a dose of 30 mg/kg was orally administrated once daily for 7 days during the fructose-loading period. The control group of rats were given 3% Arabic gum aqueous solution only. Two hours later of the final administration, the rats were bled from the abdominal aorta to measure serum triglycerides and total cholesterol. The reduction rate (%) of each measurement compared to the control groups was calculated according to the equation indicated in EXAMPLE 4.

[3] = tested on: high cholesterol-fed hamsters; assay: Lipid lowering effects in high cholesterol-fed hamsters; assay type: in vivo, Syrian hamsters; conditions: Example 9 (Table 12), 15 mg/kg p.o.
Source text: According to the method described in Jpn Pharmacol Ther, 23 (suppl 4), s1047-1053 (1995), male Syrian hamstars were fed for 3 weeks with 1% cholesterol 10% coconut oil (W/W) supplemented diet, and thereby, became to be hypercholesterolemia models. Prior to administration of the compounds, under ether anesthesia, the hamsters were bled from the orbital vein for measurement of serum total cholesterol. They were grouped in the manner by which the respective groups had almost equal serum total cholesterol levels. The normal group of hamsters were fed ordinary diet. Thereafter, the compound 1 and bezafibrate were orally administered once daily at doses of 15 (for only compound 1), 30, 60 and 120 mg/kg for 7 days. Even during the treatment period, cholesterol loading was continued. Four hours later of the final administration, the hamsters were bled by cardiac puncture. The total cholesterol and triglycerides in the serum obtained were measured by the enzymatic method. The results are shown in Table 11 (the negative values mean elevation rates.)
The actions of the compounds of the present invention at a dose of 15 mg/kg were measured in the same method as described in EXAMPLE 8.

[4] = tested on: Genetically diabetic db/db mice (C57BL/ksJ Jcl-dbm db/db mice); assay: Blood sugar lowering actions in genetically diabetic mice; assay type: in vivo; conditions: serum glucose vs control group
Protocol: (§1) Genetically diabetic db/db mice (C57BL/ksJ Jcl-dbm db/db mice) older than 8 weeks were grouped depend on their blood sugar levels of the prior measurements in order to divide groups with almost equal mean value of the sugar level. The respective groups of db/db mice were designates as the following groups: the group given the compound of the present invention, the group of troglitazone, and the group given no administrating group. For the compounds of the present invention, two doses: 75 mg/kg and 150 mg/kg, and for troglitazone, a dose of 150 mg/kg were individually given to the mice as a forced oral administration once daily for 14 days successively. These agents were suspended in 3.0% Arabic gum solution for administration. To the control group, only the same volume of 3.0% Arabic gum solution was administered. On the next day of the final administration, each mouse was […] for sampling. The blood samples were subject to serum separation. The glucose level in the serum of each group was measured. Then, a reduction rate in a glucose level (%) compared to the control group was calculated with mean value of each group according to the equation below. […] [formula]

db/db mice = assay: Antihyperlipidemic activities in genetically diabetic mice; assay type: in vivo; conditions: 150 mg/kg p.o. once daily for 14 days, serum
Protocol: as §1
In the same way as described in EXAMPLE 4, db/db mice were grouped in the manner by which the respective groups had almost equivalent mean blood sugar levels. The compounds 1, 3, 13, 21 and 22 of the present invention, suspended in 3.0% Arabic gum solution, were orally administrated, with a dose of 150 mg/kg, once daily for successive 14 days. The control group of mice were given the vehicle solution only. On the next day of the final administration, each mouse was bled for sampling. The blood was subjected for serum separation, and then subjected to measurements of β-lipoproteins, free fatty acids, and triglycerides. The reduction rate (%) of each measurement compared to the control group was calculated by the equation indicated in EXAMPLE 4. […] (Table 9).

[5] = 75 mg/kg oral once daily for 14 days
[6] = 150 mg/kg oral once daily for 14 days

Structure (SMILES): CC(=Cc1ccccc1)c1ccc(/C=C2/SC(=NC#N)NC2=O)cc1 [Compound 2, 2-(N-Cyanoimino)-5-[(E)-4-(α-methylstyryl)benzylidene]thiazolidin-4-one]
- Absorbance Ratio [1]: 1.57
- inhibition in vivo at 30 mg/kg [2]: 67%
- Reduction Rate (%) Total cholesterol [3]: 27%
- Reduction Rate (%) Triglyceride [3]: 57%

Structure (SMILES): N#CN=C1NC(=O)C(=Cc2ccc(COCc3ccccc3)cc2)S1 [Compound 3, 2-(N-Cyanoimino)-5-[4-(benzyloxymethyl)benzylidene]thiazolidin-4-one]
- Reduction in Blood Glucose (%) [4, 5]: 24%
- Reduction in Blood Glucose (%) [4, 6]: 49%
- Absorbance Ratio [1]: 1.48
- Reduction Rate (%) Free Fatty Acids (db/db mice): 58%
- Reduction Rate (%) Triglycerides (db/db mice): 85%
- Reduction Rate (%) β-lipoproteins (db/db mice): 65%
- inhibition in vivo at 30 mg/kg [2]: 64%

Structure (SMILES): CC(=Cc1ccc(/C=C2/SC(=NC#N)NC2=O)cc1)c1ccccc1 [Compound 4, 2-(N-Cyanoimino)-5-[(E)-4-(β-methylstyryl)benzylidene]thiazolidin-4-one]
- Absorbance Ratio [1]: 2.62
- inhibition in vivo at 30 mg/kg [2]: 42%

Structure (SMILES): N#CN=C1NC(=O)C(=Cc2ccc(OCCCc3ccccc3)cc2)S1 [Compound 5, 2-(N-Cyanoimino)-5-[4-(3-phenylpropoxy)benzylidene]thiazolidin-4-one]
- Absorbance Ratio [1]: 1.87

Structure (SMILES): N#CN=C1NC(=O)C(=Cc2ccc(Oc3ccc(Cl)cc3)cc2)S1 [Compound 6, 2-(N-Cyanoimino)-5-[4-(4-chlorophenoxy)benzylidene]thiazolidine-4-one]
- inhibition in vivo at 30 mg/kg [2]: 84%

Structure (SMILES): N#CN=C1NC(=O)C(=Cc2ccc(Sc3ccccc3)cc2)S1 [Compound 7, 2-(N-Cyanoimino)-5-(4-phenylthiobenzylidene)thiazolidin-4-one]
- Absorbance Ratio [1]: 1.93
- inhibition in vivo at 30 mg/kg [2]: 60%

Structure (SMILES): N#CN=C1NC(=O)/C(=C\c2ccc(C=Cc3ccccc3F)cc2)S1 [Compound 8, 2-(N-Cyanoimino)-5-[(E)-4-(2-fluorostyryl)benzylidene]thiazolidin-4-one]
- Absorbance Ratio [1]: 1.95
- inhibition in vivo at 30 mg/kg [2]: 47%

Structure (SMILES): Cc1ccc(C)c(Oc2ccc(C=C3SC(=NC#N)NC3=O)cc2)c1 [Compound 9, 2-(N-Cyanoimino)-5-[4-(2,5-dimethylphenoxy)benzylidene]thiazolidin-4-one]
- inhibition in vivo at 30 mg/kg [2]: 49%

Structure (SMILES): CC(COc1ccc(C=C2SC(=NC#N)NC2=O)cc1)c1ccccc1 (stereo not drawn) [Compound 11, 2-(N-Cyanoimino)-5-[4-(2-phenylpropoxy)benzylidene]thiazolidin-4-one]
- inhibition in vivo at 30 mg/kg [2]: 62%

Structure (SMILES): N#CN=C1NC(=O)C(=Cc2cccc(OCCc3ccccc3)c2)S1 [Compound 12, 2-(N-Cyanoimino)-5-(3-phenethyloxybenzylidene)thiazolidin-4-one]
- Absorbance Ratio [1]: 1.74
- inhibition in vivo at 30 mg/kg [2]: 59%

Structure (SMILES): N#CN=C1NC(=O)C(=Cc2ccc(OCc3ccccc3)cc2)S1 [Compound 13]
- Absorbance Ratio [1]: 2.51
- Reduction Rate (%) Free Fatty Acids (db/db mice): 38%
- Reduction Rate (%) Triglycerides (db/db mice): 70%
- Reduction Rate (%) β-lipoproteins (db/db mice): 65%
- Reduction in Serum Triglyceride (%) [2]: 55%

Structure (SMILES): N#CN=C1NC(=O)C(=Cc2ccc(-c3cc4cc(Cl)ccc4o3)cc2)S1 [Compound 14, 2-(N-Cyanoimino)-5-[4-(5-chlorobenzofuran-2-yl)benzylidene]thiazolidin-4-one]
- inhibition in vivo at 30 mg/kg [2]: 36%

Structure (SMILES): N#CN=C1NC(=O)C(=Cc2cccc(Oc3ccccc3)c2)S1 [Compound 16, 2-(N-Cyanoimino)-5-(3-phenoxybenzylidene)thiazolidin-4-one]
- Absorbance Ratio [1]: 1.18
- inhibition in vivo at 30 mg/kg [2]: 54%

Structure (SMILES): N#CN=C1NC(=O)C(=Cc2ccc(OCc3ccc4c(c3)OCO4)cc2)S1 [Compound 17, 2-(N-Cyanoimino)-5-[4-(1,3-benzodioxole-5-ylmethoxy)benzylidene]thiazolidin-4-one]
- inhibition in vivo at 30 mg/kg [2]: 37%

Structure (SMILES): N#CN=C1NC(=O)C(=Cc2ccc(OCc3ccc(Cl)cc3)cc2)S1 [Compound 19, 2-(N-Cyanoimino)-5-[4-(4-chlorobenzyloxy)benzylidene]thiazolidin-4-one]
- Absorbance Ratio [1]: 1.51
- inhibition in vivo at 30 mg/kg [2]: 38%

Structure (SMILES): N#CN=C1NC(=O)C(=Cc2ccccc2OCCc2ccccc2)S1 [Compound 21, 2-(N-Cyanoimino)-5-(2-phenethyloxybenzylidene)thiazolidin-4-one]
- Absorbance Ratio [1]: 2.02
- Reduction Rate (%) Free Fatty Acids (db/db mice): 25%
- Reduction Rate (%) Triglycerides (db/db mice): 41%
- Reduction Rate (%) β-lipoproteins (db/db mice): 38%
- inhibition in vivo at 30 mg/kg [2]: 48%

Structure (SMILES): CCC(Oc1ccc(C)cc1)c1ccccc1 (stereo not drawn) [Compound 32]
- inhibition in vivo at 30 mg/kg [2]: 47%

Structure (SMILES): N#CN=C1NC(=O)/C(=C\c2ccc(C=Cc3ccccc3)cc2)S1.[Na] [Compound 63, 2-(N-Cyanoimino)-5-[(E)-4-stylylbenzylidene]thiazolidin-4-one Sodium Salt]
- Reduction in Blood Glucose (%) [4, 5]: 32%

Structure (SMILES): Cc1c(C)c2c(c(C)c1O)CCC(C)(COc1ccc(CC3SC(=O)NC3=O)cc1)O2 (stereo not drawn) [troglitazone, reference compound]
- Reduction in Blood Glucose (%) [4, 6]: 18%
